{
  "source": "patent US20240100069A1",
  "about": "“Methods and Compositions for Treating Amyotrophic Lateral Sclerosis” (Amylyx Pharmaceuticals, Inc., priority 2022, published 2024)",
  "origin": "cited, not measured here",
  "key": {"[1]": {"settings": "in vivo"}, "[2]": {"test_system": "G393A SODI mouse model of ALS"}, "CYP 2D6": {"biological_target": "CYP 2D6 (Homo sapiens, UniProt P10635)", "sequence (P10635 whole entry)": "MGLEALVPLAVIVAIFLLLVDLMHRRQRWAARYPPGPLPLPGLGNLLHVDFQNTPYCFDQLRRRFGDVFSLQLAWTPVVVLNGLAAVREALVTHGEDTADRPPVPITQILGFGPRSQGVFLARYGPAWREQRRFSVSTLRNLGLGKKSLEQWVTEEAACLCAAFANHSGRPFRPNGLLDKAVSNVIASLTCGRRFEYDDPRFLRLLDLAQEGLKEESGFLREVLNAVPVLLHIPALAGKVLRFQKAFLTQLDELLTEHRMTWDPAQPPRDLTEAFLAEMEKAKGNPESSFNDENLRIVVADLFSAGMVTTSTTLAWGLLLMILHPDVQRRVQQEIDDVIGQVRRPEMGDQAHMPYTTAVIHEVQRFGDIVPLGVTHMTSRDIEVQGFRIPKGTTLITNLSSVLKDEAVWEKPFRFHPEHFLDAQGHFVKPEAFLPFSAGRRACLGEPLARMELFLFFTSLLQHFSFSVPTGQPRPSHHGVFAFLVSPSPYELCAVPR", "settings": "at 20 times the intended clinical concentration (Cmax)"}, "CYP 1A2": {"biological_target": "T1, CYP 1A2 (Homo sapiens, UniProt P05177)", "T1 sequence (P05177 1-516)": "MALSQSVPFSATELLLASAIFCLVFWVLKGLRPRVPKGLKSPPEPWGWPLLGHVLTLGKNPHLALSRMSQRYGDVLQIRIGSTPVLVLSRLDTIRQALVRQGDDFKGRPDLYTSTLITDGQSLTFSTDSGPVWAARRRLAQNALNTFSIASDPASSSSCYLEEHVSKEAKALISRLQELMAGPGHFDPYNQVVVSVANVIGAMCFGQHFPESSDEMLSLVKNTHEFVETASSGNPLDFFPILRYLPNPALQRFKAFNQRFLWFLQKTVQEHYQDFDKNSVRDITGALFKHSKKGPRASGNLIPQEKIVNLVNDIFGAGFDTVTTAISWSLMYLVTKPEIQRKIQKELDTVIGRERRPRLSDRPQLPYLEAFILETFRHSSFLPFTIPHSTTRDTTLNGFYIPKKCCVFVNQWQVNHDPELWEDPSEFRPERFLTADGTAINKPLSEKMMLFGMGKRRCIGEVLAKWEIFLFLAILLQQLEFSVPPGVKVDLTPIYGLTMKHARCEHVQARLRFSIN", "settings": "at 20 times the intended clinical concentration (Cmax)"}},
  "data": [
    {"compound": "C[C@H](CCC(=O)NCCS(=O)(=O)O)[C@H]1CC[C@H]2[C@@H]3[C@@H](O)C[C@@H]4C[C@H](O)CC[C@]4(C)[C@H]3CC[C@]12C", "note": "[TURSO, tauroursodeoxycholic acid]", "values": [
      {"measurement": "most common adverse reactions reported (abdominal discomfort, abdominal pain, diarrhea, nausea, pruritus, rash), frequency", "setting": "[1]", "result": "≥ 1", "unit": "%"}
    ]},
    {"compound": "O=C(O)CCCc1ccccc1", "note": "[Phenylbutyrate, sodium phenylbutyrate]", "values": [
      {"measurement": "survival in in vivo models", "setting": "[2]", "result": "increase survival"}
    ]},
    {"compound": "Phenylacetylacetate", "values": [
      {"measurement": "inhibition of CYP 2D6", "setting": "CYP 2D6", "result": "inhibitory"},
      {"measurement": "inhibition of CYP 1A2", "setting": "CYP 1A2", "result": "inhibitory"}
    ]}
  ]
}
